For data set [1], the system named is carrageenin-induced edema. The experiment in a line: carrageenin-induced edema test in rats (anti-inflammatory). The class given is in vivo. The following applies: Rattus norvegicus, po, read-out: % Decrease of the induced edema; for inhibition in vivo at 50 mg/kg: 50 mg/kg p.o.; for inhibition in vivo at 100 mg/kg: 100 mg/kg p.o.; for inhibition in vivo at 200 mg/kg: 200 mg/kg p.o.; for inhibition in vivo at 20 mg/kg: 20 mg/kg p.o.; for inhibition in vivo at 5 mg/kg: 5 mg/kg p.o.; for inhibition in vivo at 10 mg/kg: 10 mg/kg p.o. As to the method: (§1) An aspect of the anti-inflammatory utility was evidenced by means of the carrageenin-induced edema test in rats, which was performed according to the methodology described by C. A. Winter et al., Proc. Soc. Exptl. Biol. Med., 111, 544, 1962. […] It is also to be noted that the toxicities of the aminopyrrole derivatives which are the object of the present invention are very low; with few exceptions, their LD50 values are always higher than 1000 mg/kg p.o. in mice. Toxicities were determined according to the procedure described by Lichtfield and Wilcoxon, J. Pharm. Exp. Therm., 96, 99, 1949.
The following Table summarizes the aforementioned anti-inflammatory action and LD50 values.
(In general: In the carrageenan paw model, swelling and tenderness develop within hours.)

Data set [2] is described as follows: acute toxicity (LD50), procedure of Lichtfield and Wilcoxon. The following applies: mouse, in vivo, po, mice. As to the method:
as §1

Data set [3] in a line: CNS-depressant utility, general method of S. Irwin. The following applies: in vivo. From the text: This characteristic was investigated according to the general method proposed by S. Irwin, Psychopharmacologia (Berl.), 13, 222, 1968. […] This is undoubtedly another vary favorable characteristic of the inventive compounds, as a certain sedative and myorelaxing effect is useful in patients affected by severe inflammatory disease.

As usually defined, the LD50 is the dose at which mortality reaches 50%. Low readings indicate greater toxicity, high ones lower toxicity.

For the molecule `CNC(=O)c1c(C)[nH]c(-c2ccccc2)c1N.Cl` [Example 31, 3-Amino-5-methyl-4-methylcarbamoyl-2-phenylpyrrole hydrochloride], in data set [1], the inhibition in vivo at 50 mg/kg came out at 26.1%, the inhibition in vivo at 100 mg/kg was determined as 34.8% and the inhibition in vivo at 200 mg/kg was 42%. The LD50 in data set [2] is ~1000 mg/kg.
Taken in the same sequence, the figures for `COC(=O)c1c(C(N)=O)[nH]c(-c2ccccc2)c1N` [Example 55, 3-Amino-5-carbamoyl-4-carbomethoxy-2-phenyl-pyrrole] were 27.1%, 41.4%, 56.3% and 1000 mg/kg.
As to `Cc1[nH]c(-c2ccccc2)c(N)c1C(=O)c1ccccc1` [Example 3, 3-Amino-4-benzoyl-5-methyl-2-phenylpyrrole], in data set [1], the inhibition in vivo at 100 mg/kg came out at 40.6% and the inhibition in vivo at 200 mg/kg is 53.9%. Moreover, the LD50 in data set [2] is > 1000 mg/kg.
Consider `CCCC(=O)c1c(CCC)[nH]c(-c2ccccc2)c1N.Cl` [Example 34, 3-Amino-4-butyryl-2-phenyl-5-propylpyrrole hydrochloride], for which, in data set [1], the inhibition in vivo at 50 mg/kg was found to be 39.1%, the inhibition in vivo at 100 mg/kg was 50% and the inhibition in vivo at 200 mg/kg is 61.3%. For the same molecule, in data set [2], the LD50 was ~1000 mg/kg.
For `CC(=O)c1c(N)c(-c2ccccc2)n(C)c1C` [Example 49b, 4-Acetyl-3-amino-1,5-dimethyl-2-phenyl-pyrrole], in that order: 11%, 34.3%, 52.7% and > 1000 mg/kg.
`CC(=O)c1c(N(C)C)c(-c2ccccc2)n(Cc2ccc(Cl)cc2)c1C` [Example 54, 4-Acetyl-1-(p-chlorobenzyl)-5-methyl-3-dimethylamino-2-phenylpyrrole]: in data set [1], the inhibition in vivo at 100 mg/kg stood at 38% and the inhibition in vivo at 200 mg/kg is 47.6%. For the same molecule, the LD50 in data set [2] is > 1000 mg/kg.
On to `CCC(=O)c1c(C)[nH]c(-c2ccccc2)c1N` [Example 21, 3-Amino-5-methyl-2-phenyl-4-propionylpyrrole], for which, in data set [1], the inhibition in vivo at 20 mg/kg was 25.3%, the inhibition in vivo at 50 mg/kg was 36% and the inhibition in vivo at 100 mg/kg amounted to 43%. In addition, the LD50 in data set [2] is 500 mg/kg.
As to `CC(=O)c1c(C)[nH]c(-c2ccc(C)cc2)c1N` [Example 13, 4-Acetyl-3-amino-5-methyl-2-(p-tolyl)-pyrrole], in data set [1], the inhibition in vivo at 5 mg/kg is 23.2%, the inhibition in vivo at 10 mg/kg came to 31.9%, the inhibition in vivo at 20 mg/kg is 43.5% and the inhibition in vivo at 50 mg/kg turned out to be 50.7%. Further, in data set [1], the inhibition in vivo at 100 mg/kg amounted to 69.6% and the inhibition in vivo at 200 mg/kg is 75.4%. For the same molecule, the median lethal dose (LD50) in data set [2] was > 1000 mg/kg.
`CCOC(=O)c1c(N)c[nH]c1C.Cl` [Example 19, 3-Amino-4-carbethoxy-5-methylpyrrole hydrochloride]: in data set [1], the inhibition in vivo at 50 mg/kg turned out to be 24.3% and the inhibition in vivo at 100 mg/kg was determined as 45.9%. The LD50 in data set [2] was 500 mg/kg.
Turning to `CCOC(=O)c1c(C)[nH]c(-c2ccccc2)c1N.Cl` [Example 2, 3-Amino-4-carbethoxy-5-methyl-2-phenylpyrrole hydrochloride], in data set [1], the inhibition in vivo at 100 mg/kg was found to be 36.5% and the inhibition in vivo at 200 mg/kg is 44.3%. In addition, the LD50 in data set [2] is > 1000 mg/kg.
Turning to `CC(=O)c1c(C)[nH]c(-c2ccccc2)c1N=Cc1ccccc1` [Example 46, 4-Acetyl-3-benzylideneamino-5-methyl-2-phenylpyrrole], in data set [1], the inhibition in vivo at 20 mg/kg came out at 23.9%, the inhibition in vivo at 50 mg/kg is 35.2%, the inhibition in vivo at 100 mg/kg stood at 47.9% and the inhibition in vivo at 200 mg/kg is 69%. Besides, the LD50 in data set [2] is > 1000 mg/kg.
`CCOC(=O)c1c[nH]c(-c2ccccc2)c1N.Cl` [Example 6, 3-Amino-4-carbethoxy-2-phenylpyrrole hydrochloride]: in data set [1], the inhibition in vivo at 100 mg/kg was 25.7% and the inhibition in vivo at 200 mg/kg was 35%. For the same molecule, the LD50 in data set [2] was > 1000 mg/kg.
Taken in the same sequence, the figures for `CC(=O)c1c(N(C)C)c(-c2ccccc2)n(Cc2ccccc2Cl)c1C` [Example 53, 4-Acetyl-1-(o-chlorobenzyl)-5-methyl-3-dimethylamino-2-phenylpyrrole] were 30%, 37.1% and > 1000 mg/kg.
As for `CC(=O)c1c(C)[nH]c(-c2ccccc2)c1N=Cc1ccc(Cl)cc1` [Example 45, 4-Acetyl-3-(p-chlorobenzylideneamino)-5-methyl-2-phenylpyrrole], in data set [1], the inhibition in vivo at 50 mg/kg was found to be 23.9%, the inhibition in vivo at 100 mg/kg turned out to be 47.9% and the inhibition in vivo at 200 mg/kg worked out at 68.2%. Further, the LD50 in data set [2] is > 1000 mg/kg.
`CC(=O)c1c(C)[nH]c(-c2ccccc2)c1N(C)C` [Example 43, 4-Acetyl-3-dimethylamino-5-methyl-2-phenylpyrrole]: in data set [1], the inhibition in vivo at 100 mg/kg came out at 25.3% and the inhibition in vivo at 200 mg/kg is 45.6%. The LD50 in data set [2] was > 1000 mg/kg.
In the case of `CCCC(=O)c1c(C)[nH]c(-c2ccccc2)c1N.Cl` [Example 35, 3-Amino-4-butyryl-5-methyl-2-phenylpyrrole hydrochloride], in data set [1], the inhibition in vivo at 50 mg/kg is 32.4% and the inhibition in vivo at 100 mg/kg is 42%. Also, the LD50 in data set [2] amounted to 500 mg/kg.
On to `COc1ccc(-c2[nH]c(C)c(C(C)=O)c2N)cc1` [Example 14, 4-Acetyl-3-amino-2-(p-methoxyphenyl)-5-methylpyrrole], for which, in data set [1], the inhibition in vivo at 5 mg/kg amounted to 23%, the inhibition in vivo at 10 mg/kg was 31.1%, the inhibition in vivo at 20 mg/kg was 35.1% and the inhibition in vivo at 50 mg/kg was found to be 41.9%. Also, in data set [1], the inhibition in vivo at 100 mg/kg amounted to 55.4% and the inhibition in vivo at 200 mg/kg came out at 67.6%. In data set [2], the LD50 was > 1000 mg/kg.
For the molecule `CC(=O)c1c(C)[nH]c(-c2ccc(F)cc2)c1N` [Example 17, 4-Acetyl-3-amino-2-(p-fluorophenyl)-5-methylpyrrole], in data set [1], the inhibition in vivo at 100 mg/kg is 35.4% and the inhibition in vivo at 200 mg/kg is 47.9%. Moreover, the LD50 in data set [2] is > 1000 mg/kg.
Take `CC(=O)c1c(C)[nH]c(-c2ccccc2C)c1N` [Example 29, 4-Acetyl-3-amino-2-(o-tolyl)-5-methylpyrrole]: in data set [1], the inhibition in vivo at 50 mg/kg worked out at 26.4%, the inhibition in vivo at 100 mg/kg turned out to be 33.8% and the inhibition in vivo at 200 mg/kg was 42.6%. The LD50 in data set [2] was > 1000 mg/kg.
In the case of `CC(=O)c1c(N=Cc2ccccc2)c(-c2ccccc2)n(C)c1C` [Example 49a, 4-acetyl-3-benzylideneamino-1,5-dimethyl-2-phenylpyrrole], in data set [1], the inhibition in vivo at 100 mg/kg was determined as 31% and the inhibition in vivo at 200 mg/kg was determined as 53.1%. Moreover, in data set [2], the LD50 was > 1000 mg/kg.
As for `CCOC(=O)c1c(C)[nH]c(-c2ccc(C)cc2)c1N.Cl` [Example 15, 3-Amino-4-carbethoxy-5-methyl-2-(p-tolyl)-pyrrole hydrochloride], in data set [1], the inhibition in vivo at 50 mg/kg stood at 29.6%, the inhibition in vivo at 100 mg/kg was 40.8% and the inhibition in vivo at 200 mg/kg turned out to be 58.3%. For the same molecule, the “sedative and myorelaxing activity” value in data set [3] is “good degree of sedative and myorelaxing activity”. Besides, the LD50 in data set [2] was > 1000 mg/kg.
As to `Cc1[nH]c(-c2ccccc2)c(N)c1C(=O)C(C)C` [Example 20, 3-Amino-4-isobutyryl-5-methyl-2-phenylpyrrole], in data set [1], the inhibition in vivo at 50 mg/kg was determined as 24.2%, the inhibition in vivo at 100 mg/kg is 37.3% and the inhibition in vivo at 200 mg/kg was determined as 44.9%. In addition, the LD50 in data set [2] was > 1000 mg/kg.
On to `CC(=O)c1c(C)[nH]c(-c2ccc(Cl)cc2)c1N` [Example 26, 4-Acetyl-3-amino-2-(p-chlorophenyl)-5-methylpyrrole], for which, in data set [1], the inhibition in vivo at 20 mg/kg is 29.2%, the inhibition in vivo at 50 mg/kg was determined as 43.1%, the inhibition in vivo at 100 mg/kg worked out at 58.5% and the inhibition in vivo at 200 mg/kg stood at 71%. The LD50 in data set [2] is > 1000 mg/kg.
Take `CC(=O)c1c(C)[nH]c(-c2ccccc2)c1N.Cl` [Example 1, 4-Acetyl-3-amino-5-methyl-2-phenylpyrrole hydrochloride]: in data set [1], the inhibition in vivo at 5 mg/kg turned out to be 23.4%, the inhibition in vivo at 10 mg/kg is 32.5%, the inhibition in vivo at 20 mg/kg is 39% and the inhibition in vivo at 50 mg/kg is 43.8%. For the same molecule, in data set [1], the inhibition in vivo at 100 mg/kg worked out at 58.9% and the inhibition in vivo at 200 mg/kg came out at 76.6%. Also, in data set [3], the “sedative and myorelaxing activity” value is “good degree of sedative and myorelaxing activity”. For the same molecule, the LD50 in data set [2] is > 1000 mg/kg.
On to `COc1ccc(C(=O)c2c(C)[nH]c(-c3ccccc3)c2N)cc1` [Example 24, 3-Amino-4-(p-methoxybenzoyl)-5-methyl-2-phenylpyrrole], for which, in data set [1], the inhibition in vivo at 20 mg/kg came out at 20.6%, the inhibition in vivo at 50 mg/kg turned out to be 32.3% and the inhibition in vivo at 100 mg/kg was found to be 42.2%. Besides, the LD50 in data set [2] was found to be 500 mg/kg.
